Data as given in US20260130933A1, “PHARMACEUTICAL COMPOSITION FOR PREVENTION OR TREATMENT OF NEPHROPATHY AND/OR DIABETES MELLITUS, COMPRISING ENAVOGLIFLOZIN” (DAEWOONG PHARMACEUTICAL CO., LTD., priority 2022, published 2026).

Experiments:
[1] = Example 5: renal function-related safety, changes in eGFR in the phase 3 trials of Examples 1 to 3; assay type: in vivo, human; parameters: eGFR, change from baseline: unit not given here; conditions: for eGFR: in mL/min/1.73m2 (unit assumed)
Text: In phase 3 clinical trials of Examples 1 to 3, the changes in eGFR as an indicator of renal function-related safety were confirmed.

[2] = Example 6: phase 1 trial, 0.5 mg enavogliflozin in type 2 diabetes patients grouped by eGFR: urinary glucose excretion (UGE) and eGFR; assay type: in vivo, human
Procedure: The subjects were divided into the following four groups according to eGFR values, and urinary glucose excretion (UGE) and eGFR were estimated according to the administration of 0.5 mg of enavogliflozin as the test drug (stages 1 and 3: repeated administration (1 week), stages 2 and 4: single administration).

[3] = Example 7: SD rats treated with streptozotocin (diabetic nephropathy model), oral once a day for 12 weeks: urinary albumin, GS score, TA score; assay type: in vivo
Procedure: Accordingly, 60 mg/kg of streptozotocin was administered intravenously to the SD rats and used as an animal model of diabetic nephropathy.

[4] = Phase 2 clinical trial, blood glucose lowering vs placebo; assay type: in vivo, human; conditions: 0.1 mg, 0.3 mg and 0.5 mg groups
[5] = Pharmacokinetics (Tmax); assay type: in vivo; conditions: blood, oral
[6] = Dissolution test method 2 of the Korean Pharmacopoeia (paddle method); assay type: physicochemical; conditions: average particle size greater than 15 μm
Procedure: The dissolution rate of the active ingredient in the pharmaceutical composition affects the maximum blood concentration (Cmax) and the blood concentration-area under the blood concentration-time curve (AUC) when administering the drug, that is to say, in order to achieve appropriate Cmax and AUC, it is important to adjust the dissolution rate of the pharmaceutical composition. […] The above dissolution rate was measured under the condition of the dissolved solution 1.2 in accordance of the dissolution test method 2 of the Korean Pharmacopoeia (paddle method). For specific conditions, refer to the following experimental examples.

[7] = Week 6, Example 2 (combination therapy with metformin)
[8] = Week 6, Example 3 (combination therapy with metformin/gemigliptin)
[9] = Week 12, Example 2 (combination therapy with metformin)
[10] = Week 12, Example 3 (combination therapy with metformin/gemigliptin)
[11] = Week 18, Example 2 (combination therapy with metformin)
[12] = Week 18, Example 3 (combination therapy with metformin/gemigliptin)
[13] = Week 24, Example 2 (combination therapy with metformin)
[14] = Week 24, Example 3 (combination therapy with metformin/gemigliptin)
[15] = week 6, Example 2 (combination therapy with metformin)
[16] = week 6, Example 3 (combination therapy with metformin/gemigliptin)
[17] = week 12, Example 2 (combination therapy with metformin)
[18] = week 12, Example 3 (combination therapy with metformin/gemigliptin)
[19] = week 18, Example 2 (combination therapy with metformin)
[20] = week 18, Example 3 (combination therapy with metformin/gemigliptin)
[21] = week 24, Example 2 (combination therapy with metformin)
[22] = week 24, Example 3 (combination therapy with metformin/gemigliptin)

SMILES	eGFR [1, 7]	eGFR [1, 8]	eGFR [1, 9]	eGFR [1, 10]	eGFR [1, 11]	eGFR [1, 12]	eGFR [1, 13]	eGFR [1, 14]	eGFR, change from baseline [1, 15]	eGFR, change from baseline [1, 16]	eGFR, change from baseline [1, 17]	eGFR, change from baseline [1, 18]	eGFR, change from baseline [1, 19]	eGFR, change from baseline [1, 20]	eGFR, change from baseline [1, 21]	eGFR, change from baseline [1, 22]	further results
CCOc1ccc(Cc2cc([C@@H]3O[C@H](CO)[C@@H](O)[C@H](O)[C@H]3O)ccc2Cl)cc1 [Dapagliflozin, reference compound]	92.123	90.5384	92.274	89.8198	94.828	90.9546	93.739	91.6344	−1.908	−1.1439	−1.559	−1.7177	0.897	0.0571	−0.193	0.5790	
OC[C@H]1O[C@@H](c2cc(Cc3ccc(C4CC4)cc3)c(Cl)c3c2CCO3)[C@H](O)[C@@H](O)[C@@H]1O [Enavogliflozin, (2S,3R,4R,5S,6R)-2-(7-chloro-6 (4-cyclopropylbenzyl)-2,3-dihydrobenzofuran-4-yl)-6-(hydroxymethyl)tetrahydro-2H-pyran-3,4,5-triol]	88.574	89.3847	90.566	92.0995	88.185	89.9269	88.056	91.9246	0.425	1.9291	2.488	0.9308	0.105	−1.3048	−0.024	0.7726	eGFR ([1]; Week 6, Example 1 (monotherapy)): 88.464; eGFR ([1]; Week 12, Example 1 (monotherapy)): 90.142; eGFR ([1]; Week 18, Example 1 (monotherapy)): 91.088; eGFR ([1]; Week 24, Example 1 (monotherapy)): 91.387; Change in eGFR (renal function-related safety) ([1]; phase 3 trials of Examples 1 to 3): no significant change in eGFR; eGFR, change from baseline ([1]; week 6, Example 1 (monotherapy)): −0.845; eGFR, change from baseline ([1]; week 12, Example 1 (monotherapy)): 1.208; eGFR, change from baseline ([1]; week 18, Example 1 (monotherapy)): 2.072; eGFR, change from baseline ([1]; week 24, Example 1 (monotherapy)): 2.371; Urinary glucose excretion (UGE) after administration ([2]; all renal function groups): increased; Change in eGFR ([2]; patient group with 30≤eGFR<60): eGFR reduction was confirmed; Reduction of proteinuria compared with other SGLT2 inhibitors ([3]; same dose groups (1 mg/kg)): most excellent effect in reducing proteinuria; TA score (tubular atrophy) ([3]; week 12): significant dose-dependent decrease in tubular atrophy; GS score (glomerulosclerosis) ([3]; week 12, all enavogliflozin-administered groups): trend toward a decrease in the GS score; Urinary albumin concentration (proteinuria) ([3]; weeks 4, 8 and 12): dose-dependent decrease in proteinuria; Blood glucose-lowering effect compared to a placebo [4]: statistically significant blood glucose-lowering effect; Tmax [5]: 1 to 2 h; 5-minute dissolution rate [6]: less than 40%; 30-minute dissolution rate [6]: less than 80%
